These results are taken from patent US8716242B2, “β-hairpin peptidomimetics” (priority 2009, dated 2014).

Molecules are shown by their SMILES. Read-outs that look alike come from different tables or passages of the source. Bridge positions count the residues as written; N and C are the ends. Square brackets hold non-standard residues; d marks the D form. Peptide text beside a SMILES is read from it. * marks the point of attachment. Gly(Dodecyl) = CCCCCCCCCCCC[C@H](N)C(=O)O; Lauroyl = CCCCCCCCCCCC(=O)*; Decanoyl = CCCCCCCCCC(=O)*; Dab = NCC[C@H](N)C(=O)O; X3 = CCCCCCCCCC*

In general, GI50 refers to the concentration giving 50% growth inhibition. The low end stands for more potent growth inhibition, the high end for less potent growth inhibition. A word on the IC50: it is the concentration that inhibits the measured activity by half.

The nature of data set [1]: Cytotoxicity, MTT reduction assay, HELA cells. Format: cell-based. The settings on record: human, HELA cells (Acc57), 12.5-50 μM. The method, then: (§1) Mouse pre-B cells were cultured in RPMI1640 plus 5% FBS, antibiotic/antimycotic, non essential amino acid, 50 μM β-mercaptoethanol and 1 mM natrium pyruvate. HELA cells were maintained in RPMI1640 plus 10% FBS, pen/strept and 2 mM L-glutamine. Cos-7 cells were grown in DMEM medium with […] glucose supplemented with 10% FCS, pen/strept and 2 mM L-glutamine. All cell lines were grown at 37° C. at 5% CO2. Cell media, media supplements, PBS-buffer, HEPES, antibiotic/antimycotic, pen/strept, non essential amino acid, L-glutamine, β-mercaptoethanol and sera were purchased from Gibco (Pailsey, UK). All fine chemicals were supplied by Merck (Darmstadt, Germany).
(§2) The cytotoxicity of the peptides to HELA cells (Acc57) and COS-7 cells (CRL-1651) was determined using the MTT reduction assay (T. Mossman, J. Immunol. Meth. 1983, 65, 55-63; M. V. Berridge, A. S. Tan, Arch. Biochem. Biophys. 1993, 303, 474-482). Briefly, the method was as follows: 4000 HELA cells/well and 3400 COS-7 cells/well were seeded and grown in 96-well microtiter plates for 24 h at 37° C. at 5% CO2. Thereafter, time zero (Tz) was determined by MTT reduction (see below). The supernatant of the remaining wells was discarded, and fresh medium and compounds in serial dilutions (12.5, 25 and 50 μM, triplicates) were pipetted into the wells. After incubation of the cells for 48 h at 37° C. at 5% CO2 the supernatant was discarded again and 100 μL MTT reagent (0.5 mg/mL in RPMI1640 and DMEM, respectively)/well was added. Following incubation at 37° C. for 2-4 h the media were aspirated and the cells were spiked (100 μL isopropanol/well). The absorbance of the solubilized formazan was measured at 595 nm (OD595peptide). For each concentration averages were calculated from triplicates. The percentage of growth was calculated as follows: (OD595peptide-OD595Tz-OD595Empty well)/(OD595Tz-OD595Empty well)×100%. The GI50 (Growth Inhibition) concentrations were calculated for each peptide by using a trend line function for the concentrations (50, 25, 12.5 and 0 μM), the corresponding percentages and the value 50, (=TREND (C50: C0, %50:%0,50).
(In general: Tetrazolium dyes change colour on reduction, which living cells bring about.)

For data set [2], the target named is T1, human CXCR4 (Homo sapiens, UniProt P61073).
T1 construct: expressed in transfected cells; host or cells: mouse pre-B cell line 300-19
T1 sequence (P61073 whole entry): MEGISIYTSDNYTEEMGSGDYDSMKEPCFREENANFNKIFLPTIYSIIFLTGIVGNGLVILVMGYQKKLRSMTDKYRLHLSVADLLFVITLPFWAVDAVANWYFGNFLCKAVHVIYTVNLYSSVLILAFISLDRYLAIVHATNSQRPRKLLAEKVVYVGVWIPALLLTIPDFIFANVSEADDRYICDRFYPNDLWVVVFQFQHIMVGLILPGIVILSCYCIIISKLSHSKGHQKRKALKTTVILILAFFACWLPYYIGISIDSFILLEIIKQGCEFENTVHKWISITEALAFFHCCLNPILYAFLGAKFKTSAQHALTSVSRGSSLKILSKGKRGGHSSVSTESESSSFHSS
In words: Ca2+-assay: CXCR4-antagonizing activity (SDF-1 induced calcium mobilization). In kind it is cell-based. The source says:
2.3. Ca^2+-Assay: CXCR4-Antagonizing Activity of the Peptides
Increases in intracellular calcium were monitored using a Flexstation 384 (Molecular Devices, Sunnyvale, Calif.) to assay the peptides for CXCR4 antagonism in a mouse pre-B cell line 300-19 stably transfected with human CXCR4 (E. Oberlin, A. Amara, F. Bachelerie, C. Bessia, J.-L. Virelizier, F. Arenzana-Seisdedos, O, Schwartz, J.-M. Heard, I. Clark-Lewis, D. F. Legler, M. Loetscher, M. Baggiolini, B. Moser, Nature 1996, 382, 833-835; M. Loetscher, T. Geiser, T. O'Reilly, R. Zwalen, M. Baggiolini, B. Moser, J. Biol. Chem. 1994, 269, 232-237; M. D'Apuuo, A. Rolink, M. Loetscher, J. A. Hoxie, I. Clark-Lewis, F. Melchors, M. Baggiolini, B. Moser, Eur. J. Immunol. 1997, 27, 1788-1793). The cells were batch loaded with the Calcium 4 Assay kit (Molecular Devices) in assay buffer (Hanks Balanced salt solution [HBSS], 20 mM HEPES, pH 7.4, 0.1% BSA) for 1 h at room temperature and labeled cells were dispensed into black well assays plates (Costar No. 3603). Calcium mobilization induced by stromal-derived factor-1 (SDF-1) was measured in the Flexstation 384 (excitation: 485 nm; emission: 525 nm) for 90 seconds. Antagonist activity of peptides was determined by spiking the cells with compounds prior to SDF-1 addition. Dose response curves (compound concentration versus % maximum response for SDF-1) were determined for each antagonist and IC50 values were calculated by fitting the data to a four parameter logistic equation using SoftmaxPro 4.8 (Molecular Devices).
In general terms: Calcium flux is commonly read through the fluorescence of an indicator in the cells.

Data set [3] is described as follows: Plasma stability in mouse plasma. In kind it is in vitro ADME. The settings on record: mouse plasma, 37° C.; for remaining at 24 h, 10 μM: 1440 min, read-out: mouse pl. cpd left at 1440 min. The method, then: (§3) Percent hemolysis was calculated as follows: (OD540peptide/OD540H2O)×100%. 2.6. Plasma Stability
(§4) The stability of the peptides in human and mouse plasma was determined by applying the following method: 346.5 μL/deep well of freshly thawed human plasma (Basler Blutspendedienst) and mouse plasma (Harlan Sera-Lab, UK), respectively, were spiked with 3.5 μL/well of compound dissolved in DMSO/H2O ([…] [v/v], 1 mM, triplicate) and incubated at 37° C. At t=0, 15, 30, 60, 120, 240 and 1440 min aliquots of 50 μL were transferred to filtration plate wells containing 150 μL/well of 2% formic acid in acetonitrile. Following shaking for 2 min the occurred suspensions were filtrated by vacuum and 50 μL of each filtrate was mixed with 100 μL of 1% formic acid in H2O. After transfer to a propylene microtiter plate, the filtrates were analyzed by LC/MS as follows: Column: Waters, XBridge C18, mobile phases: (A) water+0.1% formic acid and (B) acetonitrile/water, 95/5 (v/v)+0.1% formic acid, gradient: 5%-100% (B) in 2 minutes, electrospray ionization, MRM detection (triple quadrupole). The peak areas were determined and triplicate values are averaged. The stability is expressed in percent of the initial value at t=0. (tx/t0×100). By using the TREND function of EXCEL (Microsoft Office 2003) T1/2 were determined.

A short description of data set [4]: Plasma stability in human plasma. In kind it is in vitro ADME. The settings on record: human plasma, 37° C.; for remaining at 24 h, 10 μM: 1440 min, read-out: human pl. cpd left at 1440 min; for human pl. T1/2: up to 1440 min. How it is done: as §3, §4
For data set [5], the system named is human red blood cells (hRBC). In words: Hemolysis of human red blood cells. In kind it is cell-based. The following applies: 20% hRBC, 1 h, 37° C. How it is done: The peptides were tested for their hemolytic activity against human red blood cells (hRBC). Fresh hRBC were washed three times with phosphate buffered saline (PBS) and centrifuged for 10 min at 2000×g. Compounds (100 μM) were incubated with 20% hRBC (v/v) for 1 h at 37° C. and shaking at 300 rpm. The final erythrocyte concentration was approximately 0.9×10^9 cells/mL. A value of 0% and 100% cell lyses, respectively, was determined by incubation of hRBC in the presence of PBS containing 0.001% acetic acid and 2.5% Triton X-100 in H2O, respectively. The samples were centrifuged, the supernatants were 8-fold diluted in PBS buffer and the optical densities (OD) were measured at 540 nm. The 100% lyses value (OD540H2O) gave an OD540 of approximately 0.5-1.0.
as §3

A short description of data set [6]: Cytotoxicity, MTT reduction assay, COS-7 cells. Format: cell-based. The following applies: African green monkey, COS-7 cells (CRL-1651), 12.5-50 μM. The method, then: as §1, §2
[7] abbreviates: mouse pre-B cell line 300-19 transfected with human CXCR4, SDF-1 induced Ca2+ mobilization, read-out: IC50% [nM] ± SD, CXCR4 receptor.

As to `CCCCCCCCCCCC(=O)NCC[C@@H]1NC(=O)[C@H](Cc2ccc(O)cc2)NC(=O)[C@@H]2CCCN2C(=O)[C@H]2CCCN2C(=O)[C@H](CCCCN)NC(=O)[C@H](CCC(N)=O)NC(=O)[C@H](Cc2ccc(O)cc2)NC(=O)[C@@H]2CSSC[C@H](NC(=O)[C@H](C)NC1=O)C(=O)N[C@@H](CCCNC(=N)N)C(=O)N[C@@H](C)C(=O)N1CCC[C@@H]1C(=O)N[C@@H](CCN)C(=O)N[C@@H](CCCNC(=N)N)C(=O)N[C@@H](Cc1ccc(O)cc1)C(=O)N2` [Ex. 1] (cyclo(Y[Dab](Lauroyl)ACRA[dP][Dab]RYCYQK[dP]P); disulfide 4-11), the concentration for 50% growth inhibition (GI50) at 48 h in data set [1] was over 28 µM; in data set [6], over 50 µM. In data set [2] (setting [7]), the IC50 came out at 94 ± 2.1 nM. Besides, the figures for the remaining at 24 h, 10 μM in data set [3] and in data set [4] were 77% and 87%, respectively. The “mouse pl. T1/2” value in data set [3] (up to 1440 min) worked out at 24 h. Moreover, in data set [4], the “human pl. T1/2” value was determined as 24 h. Moreover, the “Hemolysis at 100 μM” value in data set [5] is reported as 2.6%.

`CCCCCCCCCCCC[C@@H]1NC(=O)[C@H](Cc2c[nH]cn2)NC(=O)[C@H](Cc2ccc(O)cc2)NC(=O)[C@@H]2CCCN2C(=O)[C@H]2CCCN2C(=O)[C@H](CCCCN)NC(=O)[C@H](CCC(N)=O)NC(=O)[C@H](Cc2ccc(O)cc2)NC(=O)[C@@H]2CSSC[C@H](NC1=O)C(=O)N[C@@H](CCCNC(=N)N)C(=O)N[C@@H](C)C(=O)N1CCC[C@@H]1C(=O)N[C@@H](CCN)C(=O)N[C@@H](CCCNC(=N)N)C(=O)N[C@@H](Cc1ccc(O)cc1)C(=O)N2` [Ex. 2] (cyclo(YH[Gly(Dodecyl)]CRA[dP][Dab]RYCYQK[dP]P); disulfide 4-11): the GI50 at 48 h in data set [1] is over 13 µM; in data set [6], over 32 µM. The IC50 in data set [2] (setting [7]) was determined as 55.8 ± 6 nM. The remaining at 24 h, 10 μM in data set [3] turned out to be 62%; in data set [4] it was 96%. Further, in data set [3] (up to 1440 min, read-out: mouse pl. T1/2), the half-life at 10 μM stood at 23.4 h. In data set [4], the “human pl. T1/2” value came to 24 h. In addition, the “Hemolysis at 100 μM” value in data set [5] turned out to be 1.7%.

For `CCCCCCCCCCCC(=O)NCC[C@@H]1NC(=O)[C@H](Cc2ccc(O)cc2)NC(=O)[C@@H]2CSSC[C@H](NC(=O)[C@H](C)NC(=O)[C@H](Cc3c[nH]cn3)NC(=O)[C@H](Cc3ccc(O)cc3)NC(=O)[C@@H]3CCCN3C(=O)[C@H]3CCCN3C(=O)[C@H](CCCCN)NC1=O)C(=O)N[C@@H](CCCNC(=N)N)C(=O)N[C@@H](C)C(=O)N1CCC[C@@H]1C(=O)N[C@@H](CCN)C(=O)N[C@@H](CCCNC(=N)N)C(=O)N[C@@H](Cc1ccc(O)cc1)C(=O)N2` [Ex. 11] (cyclo(YHACRA[dP][Dab]RYCY[Dab](Lauroyl)K[dP]P); disulfide 4-11), the concentration for 50% growth inhibition (GI50) at 48 h in data set [1] is over 29 µM; in data set [6], over 50 µM. Besides, in data set [2] (setting [7]), the IC50 amounted to 7.3 ± 4.7 nM. Besides, the remaining at 24 h, 10 μM in data set [4] was determined as 82%. Besides, the “human pl. T1/2” value in data set [4] stood at 24 h. Moreover, the “Hemolysis at 100 μM” value in data set [5] is 0.7%.

Consider `CCCCCCCCCC(=O)NCCCC[C@@H]1NC(=O)[C@H](Cc2ccc(O)cc2)NC(=O)[C@@H]2CSSC[C@H](NC(=O)[C@H]([C@@H](C)O)NC(=O)[C@H](Cc3c[nH]cn3)NC(=O)[C@H](Cc3ccc(O)cc3)NC(=O)[C@@H]3CCCN3C(=O)[C@H]3CCCN3C(=O)[C@H](CCCCN)NC1=O)C(=O)N[C@@H](CCCNC(=N)N)C(=O)NCC(=O)N1CCC[C@@H]1C(=O)N[C@@H](CCN)C(=O)N[C@@H](CCCNC(=N)N)C(=O)N[C@@H](Cc1ccc(O)cc1)C(=O)N2` [Ex. 15] (cyclo(YHTCRG[dP][Dab]RYCYK(Decanoyl)K[dP]P); disulfide 4-11), for which, in data set [1], the concentration for 50% growth inhibition (GI50) at 48 h was over 50 µM. The IC50 in data set [2] (setting [7]) came to 11.2 ± 4 nM. For the same compound, in data set [4], the remaining at 24 h, 10 μM was found to be 73% and the “human pl. T1/2” value came out at 24 h. Besides, in data set [5], the “Hemolysis at 100 μM” value worked out at 0.6%. Moreover, the GI50 at 48 h in data set [6] was over 40 µM.

`CCCCCCCCCCOC[C@@H]1NC(=O)[C@H](Cc2ccc(O)cc2)NC(=O)[C@@H]2CSSC[C@H](NC(=O)[C@H]([C@@H](C)O)NC(=O)[C@H](Cc3c[nH]cn3)NC(=O)[C@H](Cc3ccc(O)cc3)NC(=O)[C@@H]3CCCN3C(=O)[C@H]3CCCN3C(=O)[C@H](CCC(N)=O)NC1=O)C(=O)N[C@@H](CCCNC(=N)N)C(=O)NCC(=O)N1CCC[C@@H]1C(=O)N[C@@H](CCN)C(=O)N[C@@H](CCCNC(=N)N)C(=O)N[C@@H](Cc1ccc(O)cc1)C(=O)N2` [Ex. 30] (cyclo(YHTCRG[dP][Dab]RYCYS(X3)Q[dP]P); disulfide 4-11) showed a 50% growth inhibitory concentration (GI50) at 48 h in data set [1] of over 50 µM. Besides, in data set [2], the half-maximal inhibitory concentration (IC50) turned out to be 55.1 ± 19 nM. For the same compound, in data set [4], the remaining at 24 h, 10 μM is 54% and the “human pl. T1/2” value was found to be 24 h. Also, the “Hemolysis at 100 μM” value in data set [5] was found to be 5.5%. The concentration for 50% growth inhibition (GI50) at 48 h in data set [6] was over 50 µM.
